This note sets out measurements from patent US10986838B2, “Herbicides” (SYNGENTA PARTICIPATIONS AG, priority 2016, dated 2021).

The subject of one assay is Abutilon theophrasti (ABUTH). The experiment in a line: Pre-emergence herbicidal activity (B1). In kind it is in vivo. The conditions noted are these: Test 1b, 1000 g/ha, evaluated after 13 days, 5=total damage to plant, 0=no damage to plant. Here is the method:
(§1) B1 Pre-Emergence Herbicidal Activity Seeds of a variety of test species were sown in standard soil in pots: Triticum aestivium (TRZAW), Avena fatua (AVEFA), Alopecurus myosuroides (ALOMY), Echinochloa crus-galli (ECHCG), Lolium perenne (LOLPE), Zea Mays (ZEAMX), Abutilon theophrasti (ABUTH), Amaranthus retroflexus (AMARE) and Setaria faberi (SETFA). After cultivation for one day (pre-emergence) under controlled conditions in a glasshouse (at 24/16° C., day/night; 14 hours light; 65% humidity), the plants were sprayed with an aqueous spray solution derived from the formulation of the technical active ingredient in acetone/water (50:50) solution containing 0.5% Tween 20 (polyoxyethelyene sorbitan monolaurate, CAS RN 9005-64-5). The test plants were then grown in a glasshouse under controlled conditions (at 24/16° C., day/night; 14 hours light; 65% humidity) and watered twice daily. After 13 days, the test was evaluated (5=total damage to plant; 0=no damage to plant). Tables B1a and B1b Control of Weed Species by Compound of Formula (I) after Pre-Emergence Application
The compound `Fc1cncc(-c2ccc(NCc3ccc(F)cc3F)c(C(F)(F)F)n2)c1` [Compound A28] displayed an ABUTH damage score of 0.
The same measure, in the same setting: as for `Nc1ccc(-c2cncc(F)c2)nc1C(F)(F)F` [Compound A33, 6-(5-fluoro-3-pyridyl)-2-(trifluoromethyl)pyridin-3-amine], the figure is 0.

A further assay relates to Alopecurus myosuroides (ALOMY). The assay is described as follows: Pre-emergence herbicidal activity (B1). In kind it is in vivo. The following applies: Test 1a, 1000 g/ha, evaluated after 13 days, 5=total damage to plant, 0=no damage to plant. Here is the method: as §1
`COC(=O)c1nc(-c2cncc(F)c2)ccc1N` [Compound A41] gave an ALOMY damage score of 0.

Another assay concerns Amaranthus retroflexus (AMARE). The experiment in a line: Pre-emergence herbicidal activity (B1). The following applies: Test 1b, 1000 g/ha, evaluated after 13 days, 5=total damage to plant, 0=no damage to plant. Type of assay: in vivo. Here is the method: as §1
`Fc1cncc(-c2ccc(NCc3ccc(F)cc3F)c(C(F)(F)F)n2)c1` [Compound A28] came in with an AMARE damage score of 0.
Same read-out and setting: as for `Nc1ccc(-c2cncc(F)c2)nc1C(F)(F)F` [Compound A33, 6-(5-fluoro-3-pyridyl)-2-(trifluoromethyl)pyridin-3-amine], the figure is 1.

In the next assay the test system is Avena fatua (AVEFA). The assay is described as follows: Pre-emergence herbicidal activity (B1). Type of assay: in vivo. The following applies: Test 1a, 1000 g/ha, evaluated after 13 days, 5=total damage to plant, 0=no damage to plant. Here is the method: as §1
With `COC(=O)c1nc(-c2cncc(F)c2)ccc1N` [Compound A41], the AVEFA damage score came out at 0.

Another assay relates to Echinochloa crus-galli (ECHCG). The assay is described as follows: Pre-emergence herbicidal activity (B1). Type of assay: in vivo. The following applies: Test 1a, 1000 g/ha, evaluated after 13 days, 5=total damage to plant, 0=no damage to plant. The protocol:
as §1
The compound `COC(=O)c1nc(-c2cncc(F)c2)ccc1N` [Compound A41] returned an ECHCG damage score of 2.

Staying with this assay, now noted: Test 1b, 1000 g/ha, evaluated after 13 days, 5=total damage to plant, 0=no damage to plant.
The compound `Fc1cncc(-c2ccc(NCc3ccc(F)cc3F)c(C(F)(F)F)n2)c1` [Compound A28] had an ECHCG damage score of 2.
On the same count and under the same terms, the value for `Nc1ccc(-c2cncc(F)c2)nc1C(F)(F)F` [Compound A33, 6-(5-fluoro-3-pyridyl)-2-(trifluoromethyl)pyridin-3-amine] was 2.

Another assay concerns Lolium perenne (LOLPE). The assay is described as follows: Pre-emergence herbicidal activity (B1). In kind it is in vivo. The conditions noted are these: Test 1a, 1000 g/ha, evaluated after 13 days, 5=total damage to plant, 0=no damage to plant. The protocol: as §1
In turn, `COC(=O)c1nc(-c2cncc(F)c2)ccc1N` [Compound A41] gave an LOLPE damage score of 0.

The assay is the same for the next values; noted with them: Test 1b, 1000 g/ha, evaluated after 13 days, 5=total damage to plant, 0=no damage to plant.
`Fc1cncc(-c2ccc(NCc3ccc(F)cc3F)c(C(F)(F)F)n2)c1` [Compound A28] had an LOLPE damage score of 0.
Still for that read-out and setting: as for `Nc1ccc(-c2cncc(F)c2)nc1C(F)(F)F` [Compound A33, 6-(5-fluoro-3-pyridyl)-2-(trifluoromethyl)pyridin-3-amine], the figure is 2.

The test system of the next assay is Setaria faberi (SETFA). The experiment in a line: Pre-emergence herbicidal activity (B1). Type of assay: in vivo. The following applies: Test 1a, 1000 g/ha, evaluated after 13 days, 5=total damage to plant, 0=no damage to plant. The protocol:
as §1
Consider `COC(=O)c1nc(-c2cncc(F)c2)ccc1N` [Compound A41], for which the SETFA damage score is listed as 2.

The assay is the same for the next values; noted with them: Test 1b, 1000 g/ha, evaluated after 13 days, 5=total damage to plant, 0=no damage to plant.
`Fc1cncc(-c2ccc(NCc3ccc(F)cc3F)c(C(F)(F)F)n2)c1` [Compound A28] gave an SETFA damage score of 4.
Take `Nc1ccc(-c2cncc(F)c2)nc1C(F)(F)F` [Compound A33, 6-(5-fluoro-3-pyridyl)-2-(trifluoromethyl)pyridin-3-amine]: the SETFA damage score worked out at 4.

Another assay has as its system Triticum aestivium (TRZAW). The assay is described as follows: Pre-emergence herbicidal activity (B1). Type of assay: in vivo. The conditions noted are these: Test 1a, 1000 g/ha, evaluated after 13 days, 5=total damage to plant, 0=no damage to plant. Here is the method:
as §1
`COC(=O)c1nc(-c2cncc(F)c2)ccc1N` [Compound A41] came in with a TRAZW damage score of 0.

Another assay concerns Zea Mays (ZEAMX). The assay is described as follows: Pre-emergence herbicidal activity (B1). In kind it is in vivo. The following applies: Test 1b, 1000 g/ha, evaluated after 13 days, 5=total damage to plant, 0=no damage to plant. Here is the method:
as §1
For the compound `Fc1cncc(-c2ccc(NCc3ccc(F)cc3F)c(C(F)(F)F)n2)c1` [Compound A28], the ZEAMX damage score amounted to 2.
Same read-out and setting: the value for `Nc1ccc(-c2cncc(F)c2)nc1C(F)(F)F` [Compound A33, 6-(5-fluoro-3-pyridyl)-2-(trifluoromethyl)pyridin-3-amine] was 4.

The subject of the next assay is Abutilon theophrasti (ABUTH). The assay is described as follows: Post-emergence herbicidal activity (B2). In kind it is in vivo. The conditions noted are these: Test B2b, 1000 g/ha, evaluated after 13 days, 5=total damage to plant, 0=no damage to plant. The protocol:
(§2) B2 Post-Emergence Herbicidal Activity Seeds of a variety of test species were sown in standard soil in pots: Triticum aestivium (TRZAW), Avena fatua (AVEFA), Alopecurus myosuroides (ALOMY), Echinochloa crus-galli (ECHCG), Lolium perenne (LOLPE), Zea Mays (ZEAMX), Abutilon theophrasti (ABUTH), Amaranthus retroflexus (AMARE) and Setaria faberi (SETFA). After 8 days cultivation (post-emergence) under controlled conditions in a glasshouse (at 24/16° C., day/night; 14 hours light; 65% humidity), the plants were sprayed with an aqueous spray solution derived from the formulation of the technical active ingredient in acetone/water (50:50) solution containing 0.5% Tween 20 (polyoxyethelyene sorbitan monolaurate, CAS RN 9005-64-5). The test plants were then grown in a glasshouse under controlled conditions (at 24/16° C., day/night; 14 hours light; 65% humidity) and watered twice daily. After 13 days, the test was evaluated (5=total damage to plant; 0=no damage to plant). Tables B2a and B2b Control of Weed Species by Compound of Formula (I) after Post-Emergence Application
For the compound `Fc1cncc(-c2ccc(NCc3ccc(F)cc3F)c(C(F)(F)F)n2)c1` [Compound A28], the ABUTH damage score came out at 0.
On the same count and under the same terms, as for `Nc1ccc(-c2cncc(F)c2)nc1C(F)(F)F` [Compound A33, 6-(5-fluoro-3-pyridyl)-2-(trifluoromethyl)pyridin-3-amine], the figure is 1.

The next assay has as its system Alopecurus myosuroides (ALOMY). The assay is described as follows: Post-emergence herbicidal activity (B2). Type of assay: in vivo. The conditions noted are these: Test B2a, 1000 g/ha, evaluated after 13 days, 5=total damage to plant, 0=no damage to plant. The protocol: as §2
`COC(=O)c1nc(-c2cncc(F)c2)ccc1N` [Compound A41] returned an ALOMY damage score of 0.

The subject of a further assay is Amaranthus retroflexus (AMARE). The experiment in a line: Post-emergence herbicidal activity (B2). In kind it is in vivo. The following applies: Test B2b, 1000 g/ha, evaluated after 13 days, 5=total damage to plant, 0=no damage to plant. Here is the method:
as §2
`Fc1cncc(-c2ccc(NCc3ccc(F)cc3F)c(C(F)(F)F)n2)c1` [Compound A28] displayed an AMARE damage score of 1.
Still for that read-out and setting: as for `Nc1ccc(-c2cncc(F)c2)nc1C(F)(F)F` [Compound A33, 6-(5-fluoro-3-pyridyl)-2-(trifluoromethyl)pyridin-3-amine], the figure is 2.

For the next assay, the system named is Avena fatua (AVEFA). The experiment in a line: Post-emergence herbicidal activity (B2). The following applies: Test B2a, 1000 g/ha, evaluated after 13 days, 5=total damage to plant, 0=no damage to plant. Type of assay: in vivo. The protocol: as §2
Compound `COC(=O)c1nc(-c2cncc(F)c2)ccc1N` [Compound A41] came in with an AVEFA damage score of 1.

A further assay deals with Echinochloa crus-galli (ECHCG). The experiment in a line: Post-emergence herbicidal activity (B2). In kind it is in vivo. The conditions noted are these: Test B2a, 1000 g/ha, evaluated after 13 days, 5=total damage to plant, 0=no damage to plant. Here is the method: as §2
Take `COC(=O)c1nc(-c2cncc(F)c2)ccc1N` [Compound A41]: the ECHCG damage score came to 2.

Still in this assay, the particulars now being: Test B2b, 1000 g/ha, evaluated after 13 days, 5=total damage to plant, 0=no damage to plant.
For the compound `Fc1cncc(-c2ccc(NCc3ccc(F)cc3F)c(C(F)(F)F)n2)c1` [Compound A28], the ECHCG damage score came out at 3.
Compound `Nc1ccc(-c2cncc(F)c2)nc1C(F)(F)F` [Compound A33, 6-(5-fluoro-3-pyridyl)-2-(trifluoromethyl)pyridin-3-amine] displayed an ECHCG damage score of 3.

For the next assay, the system named is Lolium perenne (LOLPE). The experiment in a line: Post-emergence herbicidal activity (B2). Type of assay: in vivo. The following applies: Test B2a, 1000 g/ha, evaluated after 13 days, 5=total damage to plant, 0=no damage to plant. The protocol:
as §2
`COC(=O)c1nc(-c2cncc(F)c2)ccc1N` [Compound A41] yielded an LOLPE damage score of 0.

Still in this assay, the particulars now being: Test B2b, 1000 g/ha, evaluated after 13 days, 5=total damage to plant, 0=no damage to plant.
Compound `Fc1cncc(-c2ccc(NCc3ccc(F)cc3F)c(C(F)(F)F)n2)c1` [Compound A28] showed an LOLPE damage score of 2.
Still for that read-out and setting: as for `Nc1ccc(-c2cncc(F)c2)nc1C(F)(F)F` [Compound A33, 6-(5-fluoro-3-pyridyl)-2-(trifluoromethyl)pyridin-3-amine], the figure is 3.

In another assay the test system is Setaria faberi (SETFA). The assay is described as follows: Post-emergence herbicidal activity (B2). In kind it is in vivo. The conditions noted are these: Test B2a, 1000 g/ha, evaluated after 13 days, 5=total damage to plant, 0=no damage to plant. The protocol: as §2
Take `COC(=O)c1nc(-c2cncc(F)c2)ccc1N` [Compound A41]: the SETFA damage score is recorded as 2.

Staying with this assay, now noted: Test B2b, 1000 g/ha, evaluated after 13 days, 5=total damage to plant, 0=no damage to plant.
As for `Fc1cncc(-c2ccc(NCc3ccc(F)cc3F)c(C(F)(F)F)n2)c1` [Compound A28], the SETFA damage score was 5.
With `Nc1ccc(-c2cncc(F)c2)nc1C(F)(F)F` [Compound A33, 6-(5-fluoro-3-pyridyl)-2-(trifluoromethyl)pyridin-3-amine], the SETFA damage score is given as 5.

The subject of the next assay is Triticum aestivium (TRZAW). The experiment in a line: Post-emergence herbicidal activity (B2). The following applies: Test B2a, 1000 g/ha, evaluated after 13 days, 5=total damage to plant, 0=no damage to plant. In kind it is in vivo. The protocol: as §2
`COC(=O)c1nc(-c2cncc(F)c2)ccc1N` [Compound A41] yielded a TRAZW damage score of 0.

Another assay relates to Zea Mays (ZEAMX). The assay is described as follows: Post-emergence herbicidal activity (B2). The following applies: Test B2b, 1000 g/ha, evaluated after 13 days, 5=total damage to plant, 0=no damage to plant. In kind it is in vivo. Here is the method: as §2
For the compound `Fc1cncc(-c2ccc(NCc3ccc(F)cc3F)c(C(F)(F)F)n2)c1` [Compound A28], the ZEAMX damage score is 5.
On the same count and under the same terms, the value for `Nc1ccc(-c2cncc(F)c2)nc1C(F)(F)F` [Compound A33, 6-(5-fluoro-3-pyridyl)-2-(trifluoromethyl)pyridin-3-amine] was 5.
